Test system: 12 single or co-culture in vitro tissue models of primary cells
Experiment: Culture/co-culture cell model panel, extracellular biomarkers (DiscoveRx); on CCL2/MCP-1: reference of the scale not given here; on CXCL8/IL-8: reference of the scale not given here; on CXCL9/MIG: reference of the scale not given here; on IL-1alpha: reference of the scale not given here; on M-CSF: reference of the scale not given here; on PBMC Cytotoxicity: reference of the scale not given here; on SRB: reference of the scale not given here; on sTNF-alpha: reference of the scale not given here
Format: cell-based, human
Settings: for B cell Proliferation / PBMC Cytotoxicity / Secreted IgG / sIL-2 / sIL-6 / sIL-17A / sIL-17F / sTNF-alpha: BT
[1] = HDF3CGF stimulated fibroblasts, 1.00E0 nM
[2] = HDF3CGF stimulated fibroblasts, 1.00E1 nM
[3] = HDF3CGF stimulated fibroblasts, 1.00E2 nM
[4] = HDF3CGF stimulated fibroblasts, 1.00E3 nM

## Cn1ncc2cc(-c3cnc(N)c(Cl)c3N3CCC4(CCNC4=O)CC3)ccc21 [CMPD 3]
BENo, 1.00E3 nM
  SRB: 0.000914
  tPA: -0.008
  uPA: 0.00377
BENo, 1.00E4 nM
  CCL26/Eotaxin-3: 0.042
  CD54/ICAM-1: 0.016
  CD87/uPAR: 0.038
  CXCL8/IL-8: 0.023
  CXCL9/MIG: 0.059
  CXCL10/IP-10: 0.042
  CXCL11/I-TAC: 0.073
  EGFR: 0.00756
  HLA-DR: 0.014
  IL-1alpha: -0.053
  Keratin 8/18: 0.041
  MMP-1: -0.026
  MMP-9: 0.010
  PAI-I: -0.144
  SRB: -0.006
  tPA: 0.015
  uPA: -0.00171
BF4T, 1.00E0 nM
  CCL2/MCP-1: -0.034
  CCL26/Eotaxin-3: -0.012
  CD54/ICAM-1: 0.007
  CD90: -0.021
  CD106/VCAM-1: 0.067
  CXCL8/IL-8: 0.013
  IL-1alpha: 0.00747
  Keratin 8/18: 0.00256
  MMP-1: 0.013
  MMP-3: 0.056
  MMP-9: 0.030
  PAI-I: 0.049
  SRB: 0.00349
  tPA: 0.039
  uPA: 0.035
BF4T, 1.00E1 nM
  CCL2/MCP-1: -0.011
  CCL26/Eotaxin-3: -0.071
  CD54/ICAM-1: -0.035
  CD90: 0.005
  CD106/VCAM-1: -0.00425
  CXCL8/IL-8: 0.046
  IL-1alpha: 0.008
  Keratin 8/18: 0.009
  MMP-1: -0.00365
  MMP-3: 0.023
  MMP-9: 0.007
  PAI-I: -0.00638
  SRB: 0.000434
  tPA: 0.032
  uPA: -0.000167
BF4T, 1.00E2 nM
  CCL2/MCP-1: -0.034
  CCL26/Eotaxin-3: -0.085
  CD54/ICAM-1: -0.034
  CD90: 0.00329
  CD106/VCAM-1: -0.010
  CXCL8/IL-8: 0.040
  IL-1alpha: -0.00155
  Keratin 8/18: 0.017
  MMP-1: -0.009
  MMP-3: 0.032
  MMP-9: -0.020
  PAI-I: -0.00143
  SRB: 0.00276
  tPA: 0.041
  uPA: 0.017
BF4T, 1.00E3 nM
  CCL2/MCP-1: -0.042
  CCL26/Eotaxin-3: -0.098
  CD54/ICAM-1: -0.035
  CD90: 0.00842
  CD106/VCAM-1: -0.023
  CXCL8/IL-8: 0.030
  IL-1alpha: -0.009
  Keratin 8/18: 0.034
  MMP-1: 0.000873
  MMP-3: 0.030
  MMP-9: -0.009
  PAI-I: 0.022
  SRB: 0.00179
  tPA: 0.045
  uPA: 0.019
BF4T, 1.00E4 nM
  CCL2/MCP-1: -0.010
  CCL26/Eotaxin-3: -0.092
  CD54/ICAM-1: -0.042
  CD90: 0.017
  CD106/VCAM-1: 0.005
  CXCL8/IL-8: 0.022
  IL-1alpha: -0.002
  Keratin 8/18: 0.038
  MMP-1: 0.00226
  MMP-3: 0.073
  MMP-9: 0.010
  PAI-I: 0.013
  SRB: 0.000467
  tPA: 0.028
  uPA: -0.035
1.00E0 nM
  B cell Proliferation: 0.00438
  PBMC Cytotoxicity: 0.034
  Secreted IgG: -0.074
  sIL-2: 0.110
  sIL-6: 0.008
  sIL-17A: 0.110
  sIL-17F: -0.037
  sTNF-alpha: 0.089
1.00E1 nM
  B cell Proliferation: -0.011
  PBMC Cytotoxicity: -0.016
  Secreted IgG: 0.026
  sIL-2: 0.017
  sIL-6: -0.016
  sIL-17A: 0.095
  sIL-17F: -0.399
  sTNF-alpha: -0.021
1.00E2 nM
  B cell Proliferation: -0.056
  PBMC Cytotoxicity: -0.027
  Secreted IgG: -0.165
  sIL-2: 0.084
  sIL-6: 0.046
  sIL-17A: 0.184
  sIL-17F: -0.384
  sTNF-alpha: 0.022
1.00E3 nM
  B cell Proliferation: -0.058
  PBMC Cytotoxicity: -0.050
  Secreted IgG: -0.370
  sIL-2: -0.083
  sIL-6: -0.147
  sIL-17A: 0.263
  sIL-17F: -0.522
  sTNF-alpha: -0.114
1.00E4 nM
  B cell Proliferation: -0.233
  PBMC Cytotoxicity: -0.092
  Secreted IgG: -0.611
  sIL-2: -0.213
  sIL-6: -0.493
  sIL-17A: 0.164
  sIL-17F: -0.874
  sTNF-alpha: -0.249
[1]
  CCL2/MCP-1: -0.000698
  CD54/ICAM-1: 0.022
  CD106/VCAM-1: -0.007
  CXCL8/IL-8: -0.00379
  CXCL9/MIG: 0.00441
  CXCL10/IP-10: 0.006
  CXCL11/I-TAC: 0.016
  Collagen I: 0.078
  Collagen III: 0.045
  EGFR: 0.070
  M-CSF: 0.015
  MMP-1: 0.046
  PAI-I: 0.072
  Proliferation_72hr: -0.019
  SRB: -0.009
  TIMP-1: 0.031
  TIMP-2: 0.091
[2]
  CCL2/MCP-1: -0.016
  CD54/ICAM-1: -0.00318
  CD106/VCAM-1: 0.013
  CXCL8/IL-8: -0.026
  CXCL9/MIG: -0.00175
  CXCL10/IP-10: 0.035
  CXCL11/I-TAC: -0.00346
  Collagen I: 0.095
  Collagen III: 0.043
  EGFR: -0.010
  M-CSF: -0.053
  MMP-1: 0.052
  PAI-I: -0.000592
  Proliferation_72hr: -0.139
  SRB: -0.015
  TIMP-1: -0.019
  TIMP-2: 0.138
[3]
  CCL2/MCP-1: -0.095
  CD54/ICAM-1: -0.046
  CD106/VCAM-1: 0.00848
  CXCL8/IL-8: -0.030
  CXCL9/MIG: -0.053
  CXCL10/IP-10: 0.038
  CXCL11/I-TAC: -0.019
  Collagen I: 0.072
  Collagen III: 0.069
  EGFR: -0.024
  M-CSF: -0.078
  MMP-1: 0.030
  PAI-I: -0.00555
  Proliferation_72hr: -0.249
  SRB: -0.018
  TIMP-1: -0.057
  TIMP-2: 0.140
[4]
  CCL2/MCP-1: -0.140
  CD54/ICAM-1: -0.051
  CD106/VCAM-1: 0.034
  CXCL8/IL-8: -0.084
  CXCL9/MIG: -0.075
  CXCL10/IP-10: 0.033
  CXCL11/I-TAC: -0.016
  Collagen I: 0.079
  Collagen III: 0.097
